# Laboratory results reported in PMC10591057 (Cell Reports Medicine, 2023).
# Tested on: CNV lesions
# Test: NHP laser-induced CNV, fluorescein angiography lesion grading
# Format: in vivo, Chlorocebus sabaeus
# Conditions: single ITV 1 mg Aflibercept
substance,measurement,value
"aflibercept: current standard of care anti-VEGF, single ITV administration of 1 mg","incidence of grade IV lesions, Myr-EBIN vs aflibercept groups",no significant difference
